Experimental data taken from patent publication US20210395239A1 (Hoffmann-La Roche Inc., priority 2018, published 2021).

Target: T1, hTLR9 (Homo sapiens, UniProt Q9NR96)
T1 sequence (Q9NR96 26-1032): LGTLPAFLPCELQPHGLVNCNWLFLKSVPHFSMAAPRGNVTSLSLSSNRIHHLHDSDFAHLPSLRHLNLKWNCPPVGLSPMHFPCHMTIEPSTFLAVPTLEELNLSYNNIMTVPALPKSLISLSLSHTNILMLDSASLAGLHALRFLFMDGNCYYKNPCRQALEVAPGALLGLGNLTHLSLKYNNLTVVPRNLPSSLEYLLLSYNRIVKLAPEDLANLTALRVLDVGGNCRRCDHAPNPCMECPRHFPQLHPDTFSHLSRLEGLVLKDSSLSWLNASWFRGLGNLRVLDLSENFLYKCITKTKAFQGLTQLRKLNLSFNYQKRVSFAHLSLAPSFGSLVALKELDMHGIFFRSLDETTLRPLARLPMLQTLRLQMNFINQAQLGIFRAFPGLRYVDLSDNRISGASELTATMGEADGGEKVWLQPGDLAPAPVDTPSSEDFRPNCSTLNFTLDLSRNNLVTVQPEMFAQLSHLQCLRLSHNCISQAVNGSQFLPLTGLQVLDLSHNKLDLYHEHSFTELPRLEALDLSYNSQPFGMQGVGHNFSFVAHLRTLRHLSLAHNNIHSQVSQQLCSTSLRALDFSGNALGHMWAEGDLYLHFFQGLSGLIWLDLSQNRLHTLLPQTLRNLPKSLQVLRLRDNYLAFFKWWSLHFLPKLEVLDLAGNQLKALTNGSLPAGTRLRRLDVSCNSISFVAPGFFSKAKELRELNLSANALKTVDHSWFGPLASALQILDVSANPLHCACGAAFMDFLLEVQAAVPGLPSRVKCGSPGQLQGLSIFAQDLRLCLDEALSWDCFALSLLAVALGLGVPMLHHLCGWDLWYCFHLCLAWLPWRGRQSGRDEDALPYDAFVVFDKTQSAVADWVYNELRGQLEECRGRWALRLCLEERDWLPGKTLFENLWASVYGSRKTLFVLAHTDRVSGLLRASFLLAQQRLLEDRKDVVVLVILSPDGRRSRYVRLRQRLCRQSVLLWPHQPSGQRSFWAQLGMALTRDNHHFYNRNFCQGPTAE
Assay: HEK293-Blue-hTLR-9 cells assay (SEAP reporter, ODN2006 stimulation)
Assay type: cell-based
Parameters: host or cells: HEK293 (HEK-Blue hTLR9)
Conditions: HEK293-Blue-hTLR9 cells, ODN2006, 20 hrs; read-out: HEK/hTLR9 IC50
Description: HEK293-Blue-hTLR-9 Cells Assay:
A stable HEK293-Blue-hTLR-9 cell line was purchased from InvivoGen (Cat. #: hkb-htlr9, San Diego, Calif., USA). These cells were originally designed for studying the stimulation of human TLR9 by monitoring the activation of NF-κB. A SEAP (secreted embryonic alkaline phosphatase) reporter gene was placed under the control of the IFN-β minimal promoter fused to five NF-κB and AP-1-binding sites. The SEAP was induced by activating NF-κB and AP-1 via stimulating HEK-Blue hTLR9 cells with TLR9 ligands. Therefore the reporter expression was declined by TLR9 antagonist under the stimulation of a ligand, such as ODN2006 (Cat. #: tlrl-2006-1, Invivogen, San Diego, Calif., USA), for incubation of 20 hrs. The cell culture supernatant SEAP reporter activity was determined using QUANTI-Blue™ kit (Cat. #: rep-qb1, Invivogen, San Diego, Calif., USA) at a wavelength of 640 nm, a detection medium that turns purple or blue in the presence of alkaline phosphatase.
HEK293-Blue-hTLR9 cells were incubated at a density of 250,000˜450,000 cells/mL in a volume of 170 μL in a 96-well plate in Dulbecco's Modified Eagle's medium (DMEM) containing 4.5 g/L glucose, 50 U/mL penicillin, […], 2 mM L-glutamine, 10% (v/v) heat-inactivated fetal bovine serum with addition of 20 μL test compound in a serial dilution in the presence of final DMSO at 1% and 10 μL of 20 uM ODN2006 in above DMEM, perform incubation under 37° C. in a CO2 incubator for 20 hrs. Then 20 μL of the supernatant from each well was incubated with 180 μL Quanti-blue substrate solution at 37° C. for 2 h and the absorbance was read at 620-655 nm using a spectrophotometer. The signaling pathway that TLR9 activation leads to downstream NF-κB activation has been widely accepted, and therefore similar reporter assay was modified for evaluating TLR9 antagonist.

Point of comparison: `C[C@@H]1CN(c2ccc(C#N)c3nccnc23)C[C@H](CN2CCN(c3ccnc(N4C[C@@H](N)[C@@H](F)C4)n3)CC2)O1` [Example 108, 8-[(2S,6R)-2-[[4-[2-[(3R,4S)-3-amino-4-fluoro-pyrrolidin-1-yl]pyrimidin-4-yl]piperazin-1-yl]methyl]-6-methyl-morpholin-4-yl]quinoxaline-5-carbonitrile], IC50 0.068 µM. Against it:
- COC1CN(c2nccc(N3CCN(C[C@H]4CN(c5ccc(C#N)c6ncccc56)C[C@@H](C)O4)CC3)n2)CC1N (stereo in doubt) [Example 93, 5-[(2S,6R)-2-[[4-[2-[(3R,4S)-3-amino-4-methoxy-pyrrolidin-1-yl]pyrimidin-4-yl]piperazin-1-yl]methyl]-6-methyl-morpholin-4-yl]quinoline-8-carbonitrile] — 2.2-fold lower, 0.031 µM
- C[C@@H]1CN(c2ccc(C#N)c3ncccc23)C[C@H](CN2CCN(c3ccc(CN)cc3)CC2)O1 [Example 5, 5-[(2S,6R)-2-[[4-[4-(aminomethyl)phenyl]piperazin-1-yl]methyl]-6-methyl-morpholin-4-yl]quinoline-8-carbonitrile] — 2.9-fold higher, 0.198 µM
- C[C@@H]1CN(c2ccc(C#N)c3ncccc23)C[C@H](CN2CCN(c3cnc(N4CCNCC4)cn3)CC2)O1 [Example 6, 5-[(2R,6S)-2-methyl-6-[[4-(5-piperazin-1-ylpyrazin-2-yl)piperazin-1-yl]methyl]morpholin-4-yl]quinoline-8-carbonitrile] — 1.8-fold higher, 0.12 µM
- COc1cc(N2CCN(C[C@H]3CN(c4ccc(C#N)c5ncccc45)C[C@@H](C)O3)CC2)nc(N2CCNCC2)n1 [Example 91, 5-[(2S,6R)-2-[[4-(6-methoxy-2-piperazin-1-yl-pyrimidin-4-yl)piperazin-1-yl]methyl]-6-methyl-morpholin-4-yl]quinoline-8-carbonitrile] — within 1.5-fold, 0.102 µM
- CO[C@@H]1CN(c2nccc(N3CCN(C[C@H]4CN(c5ccc(C#N)c6ncccc56)C[C@@H](C)O4)CC3)n2)C[C@@H]1N [Example 92, 5-[(2S,6R)-2-[[4-[2-[(3S,4R)-3-amino-4-methoxy-pyrrolidin-1-yl]pyrimidin-4-yl]piperazin-1-yl]methyl]-6-methyl-morpholin-4-yl]quinoline-8-carbonitrile] — 1.6-fold lower, 0.042 µM
- C[C@@H]1CN(c2ccc(C#N)c3ncccc23)C[C@H](CN2CCN(c3ncc(F)c(N4CCNCC4)n3)CC2)O1 [Example 94, 5-[(2S,6R)-2-[[4-(5-fluoro-4-piperazin-1-yl-pyrimidin-2-yl)piperazin-1-yl]methyl]-6-methyl-morpholin-4-yl]quinoline-8-carbonitrile] — within 1.5-fold, 0.051 µM
- C[C@@H]1CN(c2ccc(C#N)c3ncccc23)C[C@H](CN2CCN(c3ccnc(N4C[C@@H](F)[C@@H](N)C4)n3)CC2)O1 [Example 95, 5-[(2S,6R)-2-[[4-[2-[(3S,4R)-3-amino-4-fluoro-pyrrolidin-1-yl]pyrimidin-4-yl]piperazin-1-yl]methyl]-6-methyl-morpholin-4-yl]quinoline-8-carbonitrile] — 2.2-fold lower, 0.031 µM
- C[C@@H]1CN(c2ccc(C#N)c3ncccc23)C[C@H](CN2CCN(c3ccnc(N4C[C@@H](N)[C@H](F)C4)n3)CC2)O1 [Example 96, 5-[(2S,6R)-2-[[4-[2-[(3R,4R)-3-amino-4-fluoro-pyrrolidin-1-yl]pyrimidin-4-yl]piperazin-1-yl]methyl]-6-methyl-morpholin-4-yl]quinoline-8-carbonitrile] — 1.6-fold higher, 0.109 µM
- CO[C@H]1CN(c2ccnc(N3CCN(C[C@H]4CN(c5ccc(C#N)c6ncccc56)C[C@@H](C)O4)CC3)n2)C[C@@H]1N [Example 97, 5-[(2S,6R)-2-[[4-[4-[(3S,4S)-3-amino-4-methoxy-pyrrolidin-1-yl]pyrimidin-2-yl]piperazin-1-yl]methyl]-6-methyl-morpholin-4-yl]quinoline-8-carbonitrile] — 2-fold lower, 0.034 µM
- CO[C@@H]1CN(c2nccc(N3CCN(C[C@H]4CN(c5ccc(C#N)c6nccnc56)C[C@@H](C)O4)CC3)n2)C[C@H]1N [Example 98, 8-[(2S,6R)-2-[[4-[2-[(3R,4R)-3-amino-4-methoxy-pyrrolidin-1-yl]pyrimidin-4-yl]piperazin-1-yl]methyl]-6-methyl-morpholin-4-yl]quinoxaline-5-carbonitrile] — within 1.5-fold, 0.049 µM
- CO[C@H]1CN(c2nccc(N3CCN(C[C@H]4CN(c5ccc(C#N)c6nccnc56)C[C@@H](C)O4)CC3)n2)C[C@@H]1N [Example 99, 8-[(2S,6R)-2-[[4-[2-[(3S,4S)-3-amino-4-methoxy-pyrrolidin-1-yl]pyrimidin-4-yl]piperazin-1-yl]methyl]-6-methyl-morpholin-4-yl]quinoxaline-5-carbonitrile] — within 1.5-fold, 0.063 µM
- C[C@@H]1CN(c2ccc(C#N)c3ncccc23)C[C@H](CN2CCN(c3ccnc(N4C[C@@H](N)[C@@H](F)C4)n3)CC2)O1 [Example 101, 5-[(2S,6R)-2-[[4-[2-[(3R,4S)-3-amino-4-fluoro-pyrrolidin-1-yl]pyrimidin-4-yl]piperazin-1-yl]methyl]-6-methyl-morpholin-4-yl]quinoline-8-carbonitrile] — 2.2-fold lower, 0.031 µM
- Cc1cnc(N2CCN(C[C@H]3CN(c4ccc(C#N)c5ncccc45)C[C@@H](C)O3)CC2)nc1N1CCNCC1 [Example 102, 5-[(2R,6S)-2-methyl-6-[[4-(5-methyl-4-piperazin-1-yl-pyrimidin-2-yl)piperazin-1-yl]methyl]morpholin-4-yl]quinoline-8-carbonitrile] — within 1.5-fold, 0.08 µM
- C[C@@H]1CN(c2ccc(C#N)c3ncccc23)C[C@H](CN2CCN(c3ccnc(N4C[C@H]5NCCO[C@@H]5C4)n3)CC2)O1 [Example 103, 5-[(2S,6R)-2-[[4-[2-[(4aR,7aR)-3,4,4a,5,7,7a-hexahydro-2H-pyrrolo[3,4-b][1,4]oxazin-6-yl]pyrimidin-4-yl]piperazin-1-yl]methyl]-6-methyl-morpholin-4-yl]quinoline-8-carbonitrile] — within 1.5-fold, 0.1 µM
- COC1CCN(c2nccc(N3CCN(C[C@H]4CN(c5ccc(C#N)c6ncccc56)C[C@@H](C)O4)CC3)n2)CC1N (stereo partly drawn) [Example 109, 5-[(2S,6R)-2-[[4-[2-(3-amino-4-methoxy-1-piperidyl)pyrimidin-4-yl]piperazin-1-yl]methyl]-6-methyl-morpholin-4-yl]quinoline-8-carbonitrile] — within 1.5-fold, 0.046 µM
- C[C@@H]1CN(c2ccc(C#N)c3nccnc23)C[C@H](CN2CCN(c3ccnc(N4CC[C@H](N)[C@H](F)C4)n3)CC2)O1 [Example 111, 8-[(2S,6R)-2-[[4-[2-[(3R,4S)-4-amino-3-fluoro-1-piperidyl]pyrimidin-4-yl]piperazin-1-yl]methyl]-6-methyl-morpholin-4-yl]quinoxaline-5-carbonitrile] — 1.8-fold lower, 0.037 µM
- C[C@@H]1CN(c2ccc(C#N)c3nccnc23)C[C@H](CN2CCN(c3ccnc(N4CC[C@@H](N)[C@H](F)C4)n3)CC2)O1 [Example 113, 8-[(2S,6R)-2-[[4-[2-[(3R,4R)-4-amino-3-fluoro-1-piperidyl]pyrimidin-4-yl]piperazin-1-yl]methyl]-6-methyl-morpholin-4-yl]quinoxaline-5-carbonitrile] — within 1.5-fold, 0.098 µM
